In patent US20180353403A1, “SKIN-WHITENING COSMETIC COMPOSITION CONTAINING ROSEMARY-DERIVED VERBENONE AS ACTIVE INGREDIENT” (Jeju National University Industry-Academic Cooperation …, priority 2014, published 2018):
Values belong to the molecule of their own block, whether it stands above or below them.

How the values were obtained:
mushroom tyrosinase = experiment: Mushroom tyrosinase inhibition assay; type: biochemical
Protocol: 60 μl of a 1 M phosphate buffer (pH 6.8), 10 μl of a sample solution, and 20 μl of 500 U/ml mushroom tyrosinase were sequentially added, and then incubated at room temperature for 5 minutes. After incubation, 60 μl of an aqueous solution containing 1 mM L-tyrosine was added to initiate a reaction. The reaction was performed at 37° C. for 30 minutes, and absorbance was measured at 490 nm. Mushroom tyrosinase inhibition activity was calculated by the following equation.
Mushroom tyrosinase inhibition activity (%)=(B−A)/A×100
(§1) A: OD490 value of treated group
B: OD490 value of blank control

B 16F10 melanoma cells = experiment: Measurement of melanin content in B16F10 cells; type: cell-based, mouse
Protocol: B 16F10 melanoma cells, obtained from mice, were used as melanin-producing cells. The cultured B 16F10 cells were treated with […] α-melanocyte-stimulating hormone (α-MSH) (a control group). After 1 day, 2.5, 1.25, 0.625 mM verbenone and 2 mM arbutin (a positive control group) were added to the cells, the cells were cultured for 1 day and 2 days, respectively (experimental groups). The cultured cells were washed twice with PBS and harvested by centrifugation at 1500 rpm for 5 minutes. 300 ill of 1 N NaOH containing 10% DMSO was added to the cell pellet and then incubated at 80° C. for 1 hour to dissolve melanin. Melanin content was calculated by the following equation.
Melanin content (%)=A/B×100
as §1
B: OD490 value of non-treated group

[1] = test system: tyrosinase in B16F10 cells; experiment: Tyrosinase inhibition activity in B16F10 cells; type: cell-based, mouse; settings: α-MSH for one day, then 0.625, 1.25 and 2.5 mM, measured after 24 and 48 hours (FIG. 3)
Protocol: Cultured cells were harvested by adding […]. After harvesting, 500 μl of a cell lysis buffer (10 mM sodium phosphate buffer containing 1% Triton X-100 and 0.1 mM PMSF) was added to the harvested cells. To lyse the cells, sonication was performed on the cells and subsequently the cells were incubated on ice for 30 minutes. The lysed cells were centrifuged at 13000 rpm for 30 minutes, and the obtained cell lysate was used to measure tyrosinase activity.
To evaluate the inhibitory efficacy of verbenone against tyrosinase in B16F10 mouse melanoma cells, B16F10 cells were treated with α-MSH for one day to increase tyrosinase. Then, the cells were treated with verbenone at concentrations of 0.625, 1.25 and 2.5 mM, respectively, and tyrosinase activity was measured after 24 and 48 hours, respectively.

[2] = test system: TRP-1, TRP-2, tyrosinase and MITF; experiment: Western blot of melanogenesis-related proteins in B16F10 cells; type: cell-based, mouse
Protocol: After 24 hours, the cells were treated with verbenone at concentrations of 0.625, 1.25, and 2.5 mM, respectively, followed by culturing for 72 hours. The cultured cells were harvested and washed three times with PBS. Then, to lyse the cells, 500 μl of a lysis buffer was added to the cells and the cells were sonicated, followed by incubation for 30 minutes. After cell lysis, centrifugation was performed at 12,000 rpm and 4° C. for 30 minutes to obtain a supernatant. Protein concentration was quantified using bovine serum albumin (BSA) as a standard. Equivalent amounts of the denatured lysates were loaded onto a 12% sodium dodecyl sulfate-polyacrylamide gel, and electrophoresis was performed at 45 mA to separate proteins. After sodium dodecyl sulfate-polyacrylamide gel electrophoresis (SDS-PAGE), the separated proteins present in the gel were transferred onto a membrane at 150 V for 80 minutes. Then, blocking of the membrane was performed for overnight using TTBS (TBS+0.1% Tween 20) solution containing 5% skim milk. Primary antibodies against melanogenesis-related proteins and actin were prepared in a ratio of 1:1,000, and a primary antibody reaction was performed at room temperature for 3 hours. Anti-rabbit IgG and anti-mouse IgG were used as secondary antibodies and diluted 1:5,000. A secondary antibody reaction was performed at room temperature for 1 hour. […]

Compound: O=c1cc(CO)occ1O [kojic acid, reference compound]
mushroom tyrosinase inhibition activity (mushroom tyrosinase; kojic acid control at 200, 400 or 800 μM (FIG. 2)): observed in a concentration-dependent manner

mushroom tyrosinase inhibition activity (mushroom tyrosinase; 2.5 and 5 mM verbenone (FIG. 2)): no inhibitory effect was observed
Compound: CC1=CC(=O)[C@@H]2C[C@H]1C2(C)C [verbenone]
color of the cell pellet (B 16F10 melanoma cells; 20 nM α-MSH + 0.625, 1.25, 2.5 mM verbenone (FIG. 5)): weakened by verbenone in a concentration-dependent manner
change in melanin content in B 16F10 cells (B 16F10 melanoma cells; screen of six rosemary components, various concentrations, 72 hours, 490 nm, compared to arbutin-treated cells (FIG. 1)): most significantly decreased
melanin content in B16F10 cells (B 16F10 melanoma cells; α-MSH 24 hours, then 0.625, 1.25 and 2.5 mM, measured after 24 and 48 hours (FIG. 4)): reduced by verbenone in B16F10 cells in a concentration-dependent manner
tyrosinase activity in B16F10 cells [1]: inhibited tyrosinase in B16F10 cells
expression levels of the melanogenesis-related proteins ([2]; 20 nM α-MSH for 24 hours, then 0.625, 1.25, 2.5 mM, western blotting (FIG. 6A)): reduced in the verbenone-treated group in a concentration-dependent manner
expression levels of melanogenesis-related proteins TRP-1, TRP-2, tyrosinase and MITF ([2]; without α-MSH, 0.625, 1.25, 2.5 mM, 72 hours, western blotting (FIG. 6B)): decreased by verbenone in a concentration-dependent manner
